Laboratory results as given in publication PMC12366525, “Characterization of allosteric modulators that disrupt androgen receptor co-activator protein-protein interactions to alter transactivation–Drug leads for metastatic castration resistant prostate cancer” (SLAS discovery : advancing life sciences R & D, 2023).
Entries after “also recorded” stand apart in the source; their conditions may differ.

What was measured:
AR = target: T1, AR (Homo sapiens, UniProt P10275, T878A); assay: Western blotting cellular thermal shift assay for AR in C4–2 cells; format: cell-based; settings: 1 h at 37 °C prior to heat shock at 46 °C, hits and enzalutamide 20 μM, DHT 10 nM
T1 construct: DHT-induced full length AR directed TA; endogenous in cells; host or cells: C4–2 castration resistant prostate cancer cells
T1 sequence (P10275 1-920 T878A): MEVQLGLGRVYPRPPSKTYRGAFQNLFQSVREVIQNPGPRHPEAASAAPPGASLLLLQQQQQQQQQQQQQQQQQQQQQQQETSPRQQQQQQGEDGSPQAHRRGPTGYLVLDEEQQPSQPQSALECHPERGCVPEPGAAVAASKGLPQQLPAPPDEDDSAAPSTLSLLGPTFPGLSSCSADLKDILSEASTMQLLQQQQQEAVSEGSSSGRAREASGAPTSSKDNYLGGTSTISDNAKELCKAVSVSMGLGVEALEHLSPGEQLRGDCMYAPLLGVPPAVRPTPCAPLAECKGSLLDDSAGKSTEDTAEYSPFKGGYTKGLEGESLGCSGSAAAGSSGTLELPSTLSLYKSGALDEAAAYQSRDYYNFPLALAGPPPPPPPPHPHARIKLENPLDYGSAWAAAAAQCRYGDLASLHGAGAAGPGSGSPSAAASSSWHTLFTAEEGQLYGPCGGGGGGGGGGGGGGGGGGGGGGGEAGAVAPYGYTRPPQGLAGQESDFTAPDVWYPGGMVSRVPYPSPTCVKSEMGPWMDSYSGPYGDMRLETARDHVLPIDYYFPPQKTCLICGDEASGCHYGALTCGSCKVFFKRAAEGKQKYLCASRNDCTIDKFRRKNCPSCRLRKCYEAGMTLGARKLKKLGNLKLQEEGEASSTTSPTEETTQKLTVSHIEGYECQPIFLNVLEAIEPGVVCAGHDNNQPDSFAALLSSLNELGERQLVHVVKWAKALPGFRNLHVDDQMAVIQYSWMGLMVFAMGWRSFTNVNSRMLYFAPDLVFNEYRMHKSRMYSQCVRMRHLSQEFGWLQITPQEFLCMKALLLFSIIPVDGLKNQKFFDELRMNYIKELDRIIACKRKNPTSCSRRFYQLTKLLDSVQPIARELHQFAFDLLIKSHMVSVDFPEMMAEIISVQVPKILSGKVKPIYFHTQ
Description: C4–2 cells were harvested by trypsinization, washed 1x by centrifugation at 270 × g for 5 min and resuspension in PBS, counted, centrifugated at 270 × g for 5 min and resuspended at 7 × 10 [6] cells per mL in Opti-MEM medium (Gibco, Gaithersburg, MD). 50 μL of C4–2 cell suspension (3.5 × 10 [5] cells) were then transferred to PCR tubes that were placed in a T-100 thermocycler (BioRad, Hercules, CA) and a 2 °C interval temperature step gradient from 37 °C to 53 °C was applied. Cells were maintained at each step of the temperature gradient for 5 min and then tubes were withdrawn and placed on ice. 50 μL of cell lysis buffer, 500 mM NaCl, 1% NP-40, 1x protease inhibitor cocktail in PBS were added to the heat shocked cell suspensions in PCR tubes and placed on ice for an additional 30 min. […] 45 μL of cell lysis supernatants were mixed with 15 μL of 5x SDS-PAGE sample buffer and placed in a heat block at 100 °C for 5 min. The protein constituents of heat shocked C4–2 cell lysis supernatants were separated by SDS-PAGE on 8% separating gels, transferred to nitrocellulose membranes that were blocked for 1 h at room temperature in 5% non-fat milk in TBST, and then probed overnight at 4 °C with a 1:1000 dilution of either rabbit anti-AR (Cell Signaling, Danvers, MA) or rabbit anti-TIF2 (Bethyl Laboratories, Waltham, MA) primary antibodies in TBST containing 5% non-fat milk. Membranes were then washed 3x in TBST buffer for 10 min, then incubated with a 1:10,000 dilution of the goat anti-rabbit IgG HRP conjugated secondary antibody (Invitrogen, Carlsbad,CA) in TBST containing 5% non-fat milk for 1 h at room temperature. Western blots were then washed 3x in TBST buffer and developed with Pierce ECL western blotting substrate. Images of ECL western blots were acquired on an iBright 1500 imaging system and quantified using the iBright image analysis software.

HEK 293 cells = assay: M2H viability counter screen; format: cell-based; settings: cytotoxicity counter screen; read-out: M2H viability CS GI50

SMILES | Effect on AR thermal stability, western blot CETSA (AR) | GI50 (HEK 293 cells) [µM]
Cc1ccccc1-c1cc(O)c2c(c1)CN(c1nc(C(N)=O)cs1)CCO2 [S1–1] | did not stabilize AR, but blocked DHT-enhanced AR stabilization; also recorded: only partially blocked DHT-enhanced AR stabilization | –
Cc1ccccc1-c1cc(O)c2c(c1)CN(c1nccs1)CCO2 [S1–3] | – | > 100
Cc1nsc(NC(=O)N2CCC(Sc3ccccc3C)CC2)n1 [S2–6] | did not stabilize AR, but blocked DHT-enhanced AR stabilization; also recorded: blocked DHT-enhanced AR thermal stabilization below DMSO baseline levels | –
Cc1c(-c2ccccc2F)[nH]c2ccc(CNC(=O)CCc3cn[nH]c3)cc12 [S3–11] | did not stabilize AR, but blocked DHT-enhanced AR stabilization; also recorded: only partially blocked DHT-enhanced AR stabilization | –
